In ChEMBL document CHEMBL1154739, “Synthesis and AChE inhibitory activity of new chiral tetrahydroacridine analogues from terpenic cyclanones” (Eur J Med Chem, 2010):

Molecular target: T1, Acetylcholinesterase (Rattus norvegicus, UniProt P37136)
T1 sequence (P37136 whole entry): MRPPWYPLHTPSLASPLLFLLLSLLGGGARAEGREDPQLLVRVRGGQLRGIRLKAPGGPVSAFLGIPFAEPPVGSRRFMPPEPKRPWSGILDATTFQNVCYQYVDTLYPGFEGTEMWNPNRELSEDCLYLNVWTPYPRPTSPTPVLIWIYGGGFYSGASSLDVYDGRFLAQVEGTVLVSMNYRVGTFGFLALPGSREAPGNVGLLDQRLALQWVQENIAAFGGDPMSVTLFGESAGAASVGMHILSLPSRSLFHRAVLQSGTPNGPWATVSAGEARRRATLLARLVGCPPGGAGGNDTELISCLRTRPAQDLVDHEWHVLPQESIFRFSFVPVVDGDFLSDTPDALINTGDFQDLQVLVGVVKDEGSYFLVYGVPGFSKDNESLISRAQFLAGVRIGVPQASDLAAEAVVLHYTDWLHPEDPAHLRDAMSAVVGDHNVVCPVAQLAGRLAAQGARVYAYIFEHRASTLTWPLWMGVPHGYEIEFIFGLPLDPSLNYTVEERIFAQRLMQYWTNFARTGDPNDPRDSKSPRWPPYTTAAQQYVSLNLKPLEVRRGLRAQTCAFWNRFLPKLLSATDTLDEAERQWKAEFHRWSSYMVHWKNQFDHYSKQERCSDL
Description: Inhibition of AChE from rat cortex by Ellman assay

| Compound | IC50 [nM] |
| --- | --- |
| C[C@@H]1CCc2c(nc3ccccc3c2N)C1 | 1380 |
| CC1(C)[C@H]2Cc3c(nc4ccccc4c3N)[C@@H]1C2 | 1930 |
| C[C@H]1CC(=O)C(C)(C)c2nc3ccccc3c(N)c2C1 | 288 |
| CC(C)[C@H]1CCc2c(nc3ccccc3c2N)C1 | 816 |
| C[C@H]1Cc2nc3ccccc3c(N)c2C1 | 61 |
| CC(C)[C@H]1CC[C@H](C(C)C)c2c1nc1ccccc1c2N | 7220 |
| CC(C)[C@@H]1Cc2nc3ccccc3c(N)c2C1 | 2450 |
| C[C@@H]1c2c(nc3ccccc3c2N)[C@H]2C[C@@H]1C2(C)C | 2620 |
| C[C@H]1CC[C@H](C(C)(C)C)c2nc3ccccc3c(N)c21 | 1350 |
